According to ChEMBL document CHEMBL3727357, “Compositions and methods for inhibiting g protein signaling” (2010):
The source made the active and inactive calls. No cut-off for these calls is given here.

Legend:
Mus musculus [1] = species on record: Mus musculus; assay: Inhibition of Gbetagamma-GRK2 interaction in mouse cardiomyocytes assessed as increase in contractility; type: cell-based
Mus musculus [2] = assay: Potentiation of morphine-induced antinociceptive activity in ICR mouse assessed as morphine ED50 at 100 mg/kg, ip after 20 mins by tail flick test (reference value: 5 mg/kg); type: functional
Neutrophil [3] = assay: Antiinflammatory activity in primary human neutrophils assessed as inhibition of fMLP-stimulated chemotaxis at 10 uM after 1 hr by Boyden chamber method; type: functional, cell-based
CHO [4] = assay: Effect on total inositol phosphate production in CHO cells expressing human mu opioid receptor at 10 uM after 30 mins by scintillation counting analysis in presence of [3H]inositol; type: ADME, cell-based, Cricetulus griseus; conditions: chinese hamster, 0.5 h
Mus musculus [5] = assay: Toxicity in C57/B16 mouse assessed as effect on cardiac morphology at 100 mg/kg, ip qd administered for 7 days by post-mortem test; type: organism-based; conditions: in vivo, 168 h
Mus musculus [6] = assay: Potentiation of morphine-induced antinociceptive activity in PLCbeta3-deficient ICR mouse at 100 nmol, icv after 20 mins by tail flick test; type: functional, organism-based
[7] = Effect on differentiated human HL60 cell motility at 10 uM after 1 hr by Boyden chamber method; type: ADME, cell-based; conditions: hl-60, 1 h
Mus musculus [8] = assay: Improvement of cardiac dysfunction in cardiac-specific calsequestrin mouse with dilated cardiomyopathy at 100 mg/kg, ip qd in presence of beta adrenergic receptor blocker metoprolol; type: functional, organism-based; conditions: Heart
[9] = biological target: T1, Guanine nucleotide-binding protein G(I)/G(S)/G(T) subunit beta-1/gamma-2 (Homo sapiens, UniProt P62873+P59768); assay: Inhibition of biotinylated Gbeta1gamma2 (unknown origin) binding to PLCbeta3 at 10 uM incubated for 16 hrs; type: protein-complex assay
Mus musculus [10] = assay: Inhibition of isoproterenol-mediated interstitial cardiac fibrosis in C57/B16 mouse acute model of heart failure at 100 mg/kg, ip qd administered for 7 days by post-mortem test; type: functional, organism-based
[11] = biological target: Mu-type opioid receptor (Homo sapiens) (UniProt P35372); assay: Inhibition of human Gbetagamma-dependent mu opioid receptor-mediated PLC activation expressed in CHO cells assessed as reduction of DAMGO-mediated total inositol phosphate production at 10 uM after 30 mins by scintillation counting analysis in presence of [3H]inositol; type: functional, cell-based
Mus musculus [12] = species on record: Mus musculus; assay: Inhibition of Gbetagamma in mouse cardiomyocytes assessed as reduction of agonist-stimulated beta adrenergic receptor-mediated GRK2 recruitment to membrane; type: cell-based
Mus musculus [13] = species on record: Mus musculus; assay: Inhibition of Gbetagamma-GRK2 interaction in mouse cardiomyocytes assessed as increase in isoproterenol-induced contractility; type: cell-based
Mus musculus [14] = assay: Increase in survival of cardiac-specific calsequestrin mouse with dilated cardiomyopathy at 100 mg/kg, ip qd in presence of beta adrenergic receptor blocker metoprolol; type: functional, organism-based; conditions: Heart
Neutrophil [15] = assay: Antiinflammatory activity in primary human neutrophils assessed as inhibition of IL8-stimulated chemotaxis at 10 uM after 1 hr by Boyden chamber method; type: functional, cell-based
[16] = biological target: Mu-type opioid receptor (Homo sapiens) (UniProt P35372); assay: Inhibition of human Gbetagamma-dependent mu opioid receptor-mediated PLC activation expressed in CHO cells assessed as reduction of morphine-mediated total inositol phosphate production at 10 uM after 30 mins by scintillation counting analysis in presence of [3H]inositol; type: functional, cell-based
[17] = biological target: Delta-type opioid receptor (Homo sapiens) (UniProt P41143); assay: Inhibition of human Gbetagamma-dependent delta opioid receptor-mediated PLC activation expressed in CHO cells assessed as reduction of DPDPE-mediated total inositol phosphate production at 10 uM after 30 mins by scintillation counting analysis in presence of [3H]inositol; type: functional, cell-based
Mus musculus [18] = species on record: Mus musculus; assay: Inhibition of Gbetagamma-mediated GRK2 recruitment in mouse cardiomyocytes assessed as isoproterenol-induced cAMP generation at 10 uM pretreated for 5 mins followed by isoproterenol induction measured after 15 mins; type: functional, cell-based
CHO [19] = assay: Inhibition of human Gbetagamma-dependent kappa opioid receptor-mediated PLC activation expressed in CHO cells assessed as reduction of U50,488-mediated total inositol phosphate production at 10 uM after 30 mins by scintillation counting analysis in presence of [3H]inositol; type: cell-based
Mus musculus [20] = assay: Toxicity in C57/B16 mouse assessed as effect on cardiac function at 100 mg/kg, ip qd administered for 7 days by conscious echocardiography; type: organism-based; conditions: in vivo, 168 h
CHO [21] = assay: Reduction of U50,488-mediated total inositol phosphate production in CHO cells expressing human mu opioid receptor at 10 uM after 30 mins by scintillation counting analysis in presence of [3H]inositol; type: functional, cell-based; conditions: Cricetulus griseus
[22] = biological target: Delta-type opioid receptor (Homo sapiens) (UniProt P41143); assay: Inhibition of human Gbetagamma-dependent delta opioid receptor-mediated PLC activation expressed in CHO cells assessed as reduction of Deltorphin 2-mediated total inositol phosphate production at 10 uM after 30 mins by scintillation counting analysis in presence of [3H]inositol; type: functional, cell-based
CHO [23] = assay: Reduction of DPDPE-mediated total inositol phosphate production in CHO cells expressing human mu opioid receptor at 10 uM after 30 mins by scintillation counting analysis in presence of [3H]inositol; type: functional, cell-based; conditions: Cricetulus griseus
Mus musculus [24] = assay: Downregulation of GRK2 expression in […] mouse acute model of heart failure at 100 mg/kg, ip qd administered for 7 days by immunoblot analysis; type: functional, organism-based
HL-60 [25] = assay: Binding affinity to Gbetagamma in human HL60 cells assessed as inhibition of fMLP-stimulated GRK2 translocation at 10 uM incubated for 5 mins prior to fMLP stimulation by Western blot analysis; type: cell-based
HL-60 [26] = assay: Antiinflammatory activity in differentiated human HL60 cells assessed as inhibition of fMLP-stimulated chemotaxis by transwell assay; type: functional, cell-based
HEK293 = assay: Effect on carbachol-dependent Ca2+ release in HEK293 cells expressing M3 muscarinic receptor at 10 uM; type: functional, cell-based; conditions: Homo sapiens
Mus musculus [27] = assay: Toxicity in C57/B16 mouse assessed as overt toxic effect at 250 mg/kg/day administered for 2 weeks; type: organism-based; conditions: in vivo, 336 h
HL-60 [28] = assay: Antiinflammatory activity in differentiated human HL60 cells assessed as inhibition of fMLP-stimulated cell migration at 10 uM after 1 hr by Boyden chamber method; type: functional, cell-based
Mus musculus [29] = assay: Increase in survival of cardiac-specific calsequestrin mouse with dilated cardiomyopathy at 100 mg/kg, ip qd; type: functional, organism-based; conditions: Heart
Mus musculus [30] = assay: Antinociceptive activity in ICR mouse at 100 nmol, icv after 20 mins by tail flick test relative to control; type: functional, organism-based
Mus musculus [31] = assay: Inhibition of isoproterenol-mediated decrease in cardiac function in C57/B16 mouse acute model of heart failure at 100 mg/kg, ip qd administered for 7 days by conscious echocardiography; type: functional, organism-based
[32] = biological target: T1, Guanine nucleotide-binding protein G(I)/G(S)/G(T) subunit beta-1/gamma-2; assay: Inhibition of biotinylated Gbeta1gamma2 (unknown origin) binding to PLCbeta2 at 10 uM incubated for 16 hrs; type: protein-complex assay
HL-60 [33] = assay: Binding affinity to Gbetagamma in differentiated human HL60 cells assessed as inhibition of fMLP-stimulated Rac1 activation at 10 uM preincubated for 10 mins followed by fMLP challenge for 90 secs by Western blot analysis; type: cell-based
[34] = Reduction of membrane associated GRK2 level in mouse cardiomyocytes; type: ADME, cell-based; conditions: cardiomyocyte
HL-60 [35] = assay: Binding affinity to Gbetagamma in human HL60 cells assessed as inhibition of fMLP-stimulated GFP-PHAkt translocation to plasma membrane at 10 uM incubated for 5 mins prior to fMLP stimulation by Western blot analysis; type: cell-based
HL-60 [36] = assay: Binding affinity to Gbetagamma in human HL60 cells assessed as inhibition of fMLP-stimulated Ca2+ release at 10 uM incubated for 5 mins prior to fMLP stimulation by Fura2-AM dye-based assay; type: cell-based
HL-60 [37] = assay: Effect on fMLP-stimulated ERK1/2 phosphorylation in human HL60 cells at 10 uM incubated for 5 mins prior to fMLP stimulation by Western blot analysis; type: functional, cell-based
Mus musculus [38] = species on record: Mus musculus; assay: Inhibition of Gbetagamma-GRK2 interaction in mouse cardiomyocytes assessed as increase in isoproterenol-induced contractility in presence of beta adrenergic receptor antagonist propranolol; type: cell-based
Mus musculus [39] = species on record: Mus musculus; assay: Inhibition of Gbetagamma-mediated GRK2 recruitment in mouse cardiomyocytes assessed as cAMP generation at 10 uM treated for 5 mins; type: functional, cell-based
HL-60 [40] = assay: Binding affinity to Gbetagamma in differentiated human HL60 cells assessed as inhibition of fMLP-stimulated superoxide production at 10 uM preincubated for 10 mins followed by nitro blue tetrazolium addition for 5 mins and fMLP addition for 30 mins by NADPH oxidase assay; type: cell-based
Mus musculus [41] = assay: Improvement of cardiac dysfunction in cardiac-specific calsequestrin mouse with dilated cardiomyopathy at 100 mg/kg, ip qd; type: functional, organism-based; conditions: Heart
Mus musculus [42] = species on record: Mus musculus; assay: Inhibition of Gbetagamma-GRK2 interaction in mouse cardiomyocytes assessed as increase in contractility in presence of beta adrenergic receptor antagonist propranolol; type: cell-based
Mus musculus [43] = assay: Inhibition of isoproterenol-mediated decrease in cardiac morphology in C57/B16 mouse acute model of heart failure at 100 mg/kg, ip qd administered for 7 days by post-mortem test; type: functional, organism-based
Neutrophil [44] = assay: Antiinflammatory activity in primary human neutrophils assessed as inhibition of GM-CSF-stimulated chemotaxis at 1 uM after 1 hr by Boyden chamber method; type: functional, cell-based
[45] = biological target: T1, Guanine nucleotide-binding protein G(I)/G(S)/G(T) subunit beta-1/gamma-2; assay: Inhibition of SIGKAFKILGYPDYD binding to biotinylated Gbeta1gamma2 (unknown origin) at 300 uM incubated for 1 hr by phage ELISA; type: protein-complex assay
[46] = biological target: T1, Guanine nucleotide-binding protein G(I)/G(S)/G(T) subunit beta-1/gamma-2; assay: (§1) Inhibition of SIGKAFKILGYPDYD binding to biotinylated Gbeta1gamma2 (unknown origin) incubated for 1 hr by phage ELISA; type: protein-complex assay
Mus musculus [47] = assay: Antiinflammatory activity in Swiss-Webster mouse assessed as inhibition of carrageenan-induced paw edema at 2.5 mg/kg, ip administered 1 hr followed by carrageenan challenge measured 3 times every 2 hrs; type: functional, organism-based
Mus musculus [48] = assay: Antiinflammatory activity in Swiss-Webster mouse carrageenan-induced paw edema model assessed as reduction of paw exudate volume at 2.5 mg/kg, ip administered 1 hr followed by carrageenan challenge; type: functional, organism-based
Mus musculus [49] = assay: Antiinflammatory activity in Swiss-Webster mouse carrageenan-induced paw edema model assessed as inhibition of neutrophils recruitment in edematous fluid at 2.5 mg/kg, ip administered 1 hr followed by carrageenan challenge; type: functional, organism-based
[50] = biological target: Guanine nucleotide-binding protein G(I)/G(S)/G(T) subunit beta-1/gamma-2 (Homo sapiens, UniProt P59768+P62873); assay: as §1; type: protein-complex assay
[51] = biological target: Delta-type opioid receptor (Homo sapiens) (UniProt P41143); conditions: CHO, 100 uM
Description: Inhibition of human Gbetagamma-dependent delta opioid receptor-mediated PLC activation expressed in CHO cells assessed as reduction of DPDPE-mediated total inositol phosphate production at 100 uM after 30 mins by scintillation counting analysis in presence of [3H]inositol

[52] = biological target: Delta-type opioid receptor (Homo sapiens) (UniProt P41143); conditions: CHO, 100 uM; remark: listed apart in the source
Description: Inhibition of human Gbetagamma-dependent delta opioid receptor-mediated PLC activation expressed in CHO cells assessed as reduction of Deltorphin 2-mediated total inositol phosphate production at 100 uM after 30 mins by scintillation counting analysis in presence of [3H]inositol

Chain of Delta-type opioid receptor (Homo sapiens) (P41143 whole entry): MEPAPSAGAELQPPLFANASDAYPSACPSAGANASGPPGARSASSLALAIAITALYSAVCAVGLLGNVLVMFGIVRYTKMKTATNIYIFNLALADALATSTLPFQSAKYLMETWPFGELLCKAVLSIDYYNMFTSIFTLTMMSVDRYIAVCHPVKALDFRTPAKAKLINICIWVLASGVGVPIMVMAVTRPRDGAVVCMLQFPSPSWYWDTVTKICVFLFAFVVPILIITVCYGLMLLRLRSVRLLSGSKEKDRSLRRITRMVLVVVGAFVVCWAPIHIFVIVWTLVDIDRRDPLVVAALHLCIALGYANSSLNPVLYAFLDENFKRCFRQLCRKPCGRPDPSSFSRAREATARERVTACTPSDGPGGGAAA
T1 sequence (P59768 2-71 partner limits assumed): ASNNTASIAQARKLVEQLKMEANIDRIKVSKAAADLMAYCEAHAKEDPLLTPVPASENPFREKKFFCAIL
T1 sequence (P62873 2-340 limits assumed): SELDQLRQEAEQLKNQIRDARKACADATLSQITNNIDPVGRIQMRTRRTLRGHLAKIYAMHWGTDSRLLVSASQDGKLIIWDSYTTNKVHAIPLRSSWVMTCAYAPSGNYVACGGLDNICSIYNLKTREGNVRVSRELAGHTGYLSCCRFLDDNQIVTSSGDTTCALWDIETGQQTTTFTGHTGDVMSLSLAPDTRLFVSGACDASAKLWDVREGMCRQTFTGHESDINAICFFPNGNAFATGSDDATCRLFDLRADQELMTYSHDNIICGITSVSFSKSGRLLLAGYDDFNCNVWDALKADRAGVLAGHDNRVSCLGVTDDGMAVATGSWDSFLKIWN
Chain of Mu-type opioid receptor (Homo sapiens) (P35372 whole entry): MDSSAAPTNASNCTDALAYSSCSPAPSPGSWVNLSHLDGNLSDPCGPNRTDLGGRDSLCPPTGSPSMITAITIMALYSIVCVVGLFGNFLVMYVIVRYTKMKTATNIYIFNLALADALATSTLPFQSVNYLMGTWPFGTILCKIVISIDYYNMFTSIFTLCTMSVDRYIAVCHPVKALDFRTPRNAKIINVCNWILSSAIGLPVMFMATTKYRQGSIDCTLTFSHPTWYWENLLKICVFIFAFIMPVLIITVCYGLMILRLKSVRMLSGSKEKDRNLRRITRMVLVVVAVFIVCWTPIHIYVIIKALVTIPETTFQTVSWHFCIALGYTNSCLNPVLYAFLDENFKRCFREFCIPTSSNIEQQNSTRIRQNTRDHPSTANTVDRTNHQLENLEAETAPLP
Chain of Guanine nucleotide-binding protein G(I)/G(S)/G(T) subunit beta-1/gamma-2 (Homo sapiens, UniProt P59768+P62873) (P59768 2-71 partner limits assumed): as the sequence (P59768 2-71 partner limits assumed) above
Chain of Guanine nucleotide-binding protein G(I)/G(S)/G(T) subunit beta-1/gamma-2 (Homo sapiens, UniProt P59768+P62873) (P62873 2-340 limits assumed): as the sequence (P62873 2-340 limits assumed) above

O=C(O)C1CCCCC1c1c2ccc(=O)c(O)c-2oc2c(O)c(O)ccc12 (stereo not drawn)
inhibition (Mus musculus [1]): Active
ED50 (Mus musculus [2]): 1.3 mg/kg
inhibition (Neutrophil [3]): Active
Activity (CHO [4]): Non-toxic
Activity (Mus musculus [5]): Non-toxic
Activity (Mus musculus [6]): inactive
Activity [7]: Non-toxic
Activity (Mus musculus [8]): Active
inhibition [9]: Active
inhibition (Mus musculus [10]): Active
inhibition [11]: Active
inhibition (Mus musculus [12]): Active
inhibition (Mus musculus [13]): Active
Activity (Mus musculus [14]): Active
inhibition (Neutrophil [15]): Active
inhibition [16]: Active
inhibition [17]: inactive
inhibition (Mus musculus [18]): Active
inhibition (CHO [19]): inactive
Activity (Mus musculus [20]): Non-toxic
Activity (CHO [21]): inactive
inhibition [22]: inactive
Activity (CHO [23]): inactive
Activity (Mus musculus [24]): Active
inhibition (HL-60 [25]): Active
inhibition (HL-60 [26]): inactive
Activity (HEK293): inactive
Activity (Mus musculus [27]): Non-toxic
inhibition (HL-60 [28]): Active
Activity (Mus musculus [29]): Active
Activity (Mus musculus [30]): inactive
inhibition (Mus musculus [31]): Active
inhibition [32]: Active
inhibition (HL-60 [33]): Active
Activity [34]: Non-toxic
inhibition (HL-60 [35]): Active
inhibition (HL-60 [36]): Active
Activity (HL-60 [37]): inactive
inhibition (Mus musculus [38]): inactive
inhibition (Mus musculus [39]): Active
inhibition (HL-60 [40]): Active
Activity (Mus musculus [41]): Active
inhibition (Mus musculus [42]): inactive
inhibition (Mus musculus [43]): Active
inhibition (Neutrophil [44]): inactive

O=c1cc2oc3cc(O)c(O)cc3c(-c3ccccc3O)c-2cc1O
inhibition [45]: inactive
inhibition [46]: inactive

COc1ccc2c(c1)c(CC(=O)O)c(C)n2C(=O)c1ccc(Cl)cc1
inhibition (Mus musculus [47]): Active
Activity (Mus musculus [48]): Active
inhibition (Mus musculus [49]): Active

Cc1c2cc(O)c(=O)cc-2oc2cc(O)c(O)cc12
inhibition [45]: inactive
inhibition [46]: inactive

O=C(O)c1ccc(-c2c3ccc(=O)cc-3oc3cc(O)ccc23)cc1
inhibition [45]: inactive
inhibition [46]: inactive

CC1C2C=CC1C(c1c3ccc(=O)cc-3oc3cc(O)ccc13)C2C(=O)O (stereo not drawn)
IC50 [50]: 14 µM

O=C(O)c1cccc2cccc(-c3c4ccc(=O)c(O)c-4oc4c(O)c(O)ccc34)c12
IC50 [50]: 0.13 µM

Oc1ccc2c3c1O[C@H]1c4[nH]c5ccccc5c4C[C@@]4(O)[C@@H](C2)N(CC2CC2)CC[C@]314
inhibition [51]: inactive
inhibition [52]: inactive
